The values below come from patent US9481682B2, “Substituted benzamides and substituted pyridinecarboxamides as Btk inhibitors” (MERCK SHARP & DOHME CORP., priority 2013, dated 2016).

The subject of one assay is HeLa cells. Briefly: [3H]Adenosine uptake functional cellular assay. The format is cell-based. The settings on record: accumulation of [3H]adenosine into HeLa cells, read-out: Adenosine uptake inhibition IC50. The method, then: Compounds are also screened in an adenosine uptake functional cellular assay using the protocol described below. The adenosine uptake inhibition assay may be used to identify compounds with the potential for a negative cardiovascular side effect.
Adenosine uptake activity was determined by monitoring the accumulation of tritiated adenosine into HeLa cells (ATCC catalog #CCL-2) using a PMT-based radiometric detection instrument. […] These cells were incubated overnight at 37° C. in a humidified atmosphere with 5% (v/v) CO2. After this time the growth medium was removed and replaced with 40 μL assay medium comprising: Hanks balanced salts solution (HBSS; Thermo Fisher Catalog #SH30268.01)+5% (v/v) FBS. […] Following this incubation, 20 μL of 500 nM [^3H]adenosine (American Radiolabeled Chemicals Inc. […] The amount of radiolabel accumulation was then determined using a Perkin Elmer Topcount NXT microplate reader. In brief, HeLa cells adhere to the bottom of the Cytostar-T plate, uptake of [^3H]adenosine into these cells brings the radiolabel into sufficient proximity to excite the scintillant in the base of the plates. These events are captured by single PMT, time-resolved coincidence counting. IC50 values were determined by 4 parameter robust fit of counts per second values vs. (Log10) compound concentrations.

For assay [1], the target named is hBTK (recombinant full-length BTK) (Homo sapiens (Human), UniProt Q06187). Nature of the assay: BTK enzymatic activity, LANCE TR-FRET assay. Format: biochemical. The settings on record: 50 pM hBTK, 2 μM biotin-A5-peptide, 25 μM ATP; 60 minute compound & enzyme incubation. The method, then: BTK enzymatic activity was determined with the LANCE (Lanthanide Chelate Excite) TR-FRET (Time-resolved fluorescence resonance energy transfer) assay. […] Phosphorylation reactions were allowed to proceed for 120 minutes. […] After 60 minutes incubation with detection reagents, reaction plates were read on a PerkinElmer EnVision plate reader using standard TR-FRET protocol. […] IC50 values were determined by 4 parameter robust fit of TR-FRET ratio values vs. (Log10) compound concentrations.
Chain of hBTK (recombinant full-length BTK) (Q06187 whole entry): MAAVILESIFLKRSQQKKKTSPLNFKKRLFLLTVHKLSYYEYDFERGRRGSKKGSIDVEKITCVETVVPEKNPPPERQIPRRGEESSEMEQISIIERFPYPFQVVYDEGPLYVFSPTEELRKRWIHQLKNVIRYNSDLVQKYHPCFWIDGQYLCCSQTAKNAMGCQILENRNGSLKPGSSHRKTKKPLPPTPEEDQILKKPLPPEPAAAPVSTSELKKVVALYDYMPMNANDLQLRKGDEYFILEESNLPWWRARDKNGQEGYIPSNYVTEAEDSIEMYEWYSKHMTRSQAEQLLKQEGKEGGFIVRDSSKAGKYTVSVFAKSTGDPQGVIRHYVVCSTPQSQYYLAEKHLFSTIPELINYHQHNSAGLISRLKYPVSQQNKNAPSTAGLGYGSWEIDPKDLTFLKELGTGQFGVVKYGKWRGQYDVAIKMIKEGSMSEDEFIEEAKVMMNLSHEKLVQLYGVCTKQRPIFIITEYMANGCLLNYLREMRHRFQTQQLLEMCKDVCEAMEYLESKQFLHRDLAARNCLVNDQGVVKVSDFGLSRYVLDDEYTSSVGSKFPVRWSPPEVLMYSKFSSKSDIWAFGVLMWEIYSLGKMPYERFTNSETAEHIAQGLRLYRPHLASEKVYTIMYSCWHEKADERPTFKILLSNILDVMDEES

[2] abbreviates: Homo sapiens, compound range 10 μM to 0.032 nM.

Like-named read-outs stand apart in the source and are kept apart here.

Regarding `Nc1nccn2c([C@H]3CC[C@H]4CNCC(=O)N4C3)nc(-c3ccc(C(=O)Nc4cc(C(F)(F)F)ccn4)cc3)c12` [Example 57, 4-{8-amino-3-[(7S,9aS)-4-oxooctahydro-2H-pyrido[1,2-a]pyrazin-7-yl]imidazo[1,5-a]pyrazin-1-yl}-N-[4-(trifluoromethyl)pyridin-2-yl]benzamide], the IC50 in the assay on HeLa cells (setting [2]) was 10000 nM.
Consider `Nc1nccn2c([C@@H]3CC[C@@H]4C[C@H](O)C(=O)N4C3)nc(-c3ccc(C(=O)Nc4cc(C(F)(F)F)ccn4)cc3)c12` [Example 72, 4-{8-amino-3-[(2S,6R,8aR)-2-hydroxy-3-oxooctahydroindolizin-6-yl]imidazo[1,5-a]pyrazin-1-yl}-N-[4-(trifluoromethyl)pyridin-2-yl]benzamide], for which the values for the IC50 (in assay [1]; in the assay on HeLa cells (setting [2])) were 0.45 nM and 730 nM, respectively.
For `Nc1nccn2c([C@H]3CC[C@H]4C[C@@H](O)C(=O)N4C3)nc(-c3ccc(C(=O)Nc4cc(C(F)(F)F)ccn4)cc3)c12` [Example 74, 4-{8-amino-3-[(2R,6S,8aS)-2-hydroxy-3-oxooctahydroindolizin-6-yl]imidazo[1,5-a]pyrazin-1-yl}-N-[4-(trifluoromethyl)pyridin-2-yl]benzamide], the results for the IC50 (in assay [1]; with HeLa cells (setting [2])) were 4.6 nM and 1300 nM, respectively.
Consider `CN1CC[C@@H]2CC[C@@H](c3nc(-c4ccc(C(=O)Nc5cc(C(F)(F)F)ccn5)cc4)c4c(N)nccn34)CN2C1=O` [Example 83, 4-(8-amino-3-((4aS,7R)-2-methyl-1-oxooctahydro-1H-pyrido[1,2-c]pyrimidin-7-yl)imidazol[1,5-a]pyrazin-1-yl)-N-(4-(trifluoromethyl)pyridin-2-yl)benzamide], for which the figures for the half-maximal inhibitory concentration (IC50) (in assay [1]; in the assay with HeLa cells (compound range 10 μM to […])) were 0.092 nM and 124 nM, respectively.
In the case of `CN1CC[C@H]2CC[C@H](c3nc(-c4ccc(C(=O)Nc5cc(C(F)(F)F)ccn5)cc4)c4c(N)nccn34)CN2C1=O` [Example 84, 4-(8-amino-3-((4aR,7S)-2-methyl-1-oxooctahydro-1H-pyrido[1,2-c]pyrimidin-7-yl)imidazol[1,5-a]pyrazin-1-yl)-N-(4-(trifluoromethyl)pyridin-2-yl)benzamide], the values for the 50% inhibitory concentration (IC50) (in assay [1]; in the assay with HeLa cells (compound range 10 μM to […])) were 3 nM and 155 nM, respectively.
As for `COc1cc(C(=O)Nc2cc(C(F)(F)F)ccn2)ccc1-c1nc([C@@H]2CC[C@H]3CN(C(=O)c4ccncc4)CC(=O)N3C2)n2ccnc(N)c12` [Example 85, 4-(8-amino-3-((7R,9aS)-2-isonicotinoyl-4-oxooctahydro-1H-pyrido[1,2-a]pyrazin-7-yl)imidazo[1,5-a]pyrazin-1-yl)-3-methoxy-N-(4-(trifluoromethyl)pyridin-2-yl)benzamide], in the assay on HeLa cells (setting [2]), the IC50 came to 2780 nM.
As to `NC(=O)c1cc(C(=O)Nc2cc(C(F)(F)F)ccn2)ccc1-c1nc([C@@H]2CC[C@H]3CCC(=O)N3C2)n2ccnc(N)c12` [Example 124, 4-{8-amino-3-[(6R,8aS)-3-oxooctahydroindolizin-6-yl]imidazo[1,5-a]pyrazin-1-yl}-N~1~-[4-(trifluoromethyl)pyridin-2-yl]benzene-1,3-dicarboxamide], in the assay with HeLa cells (setting [2]), the IC50 was found to be 10000 nM.
Consider `Cn1nc(NC(=O)c2ccc(-c3nc([C@@H]4CC[C@H]5CCC(=O)N5C4)n4ccnc(N)c34)c(OC3CNC3)c2)cc1C(F)(F)F` [Example 149, 4-{8-amino-3-[(6R,8aS)-3-oxooctahydroindolizin-6-yl]imidazo[1,5-a]pyrazin-1-yl}-3-(azetidin-3-yloxy)-N-[1-methyl-5-(trifluoromethyl)-1H-pyrazol-3-yl]benzamide], for which the IC50 with HeLa cells (setting [2]) came to 10000 nM.
`COCCOc1cc(C(=O)Nc2cccc(C(F)(F)F)c2)ccc1-c1nc([C@@H]2CC[C@H]3CCC(=O)N3C2)n2ccnc(N)c12` [Example 199, 4-(8-amino-3-((6R,8aS)-3-oxooctahydroindolizin-6-yl)imidazo[1,5-a]pyrazin-1-yl)-3-(2-methoxyethoxy)-N-(3-(trifluoromethyl)phenyl)benzamide]: the IC50 in assay [1] came out at 1.9 nM; with HeLa cells (setting [2]), 7090 nM.
For `Nc1nccn2c([C@@H]3CC[C@H]4CCC(=O)N4C3)nc(-c3ccc(C(=O)Nc4cc(C(F)(F)F)ccn4)cc3OCCO)c12` [Example 200, 4-{8-amino-3-[(6R,8aS)-3-oxooctahydroindolizin-6-yl]imidazo[1,5-a]pyrazin-1-yl}-3-(2-hydroxyethoxy)-N-[4-(trifluoromethyl)pyridin-2-yl]benzamide], the IC50 in the assay on HeLa cells (setting [2]) amounted to 5450 nM.
